Results as given in US12371454B2, “Cyclic peptide compound having Kras inhibitory action” (priority 2019, dated 2025).
Starred links: 1 amine or outer side, 2 acyl side, 3 side chain; linkers in the order of their positions; H or OH if unused. Positions of bridges follow the written chain, without caps; N, C: chain ends. Non-standard residues stand in square brackets, D forms with d. Residues, ends and D or L forms follow the SMILES beside them. *: point of attachment. hPhe(3-Cl-4-CF3) = N[C@@H](CCc1ccc(C(F)(F)F)c(Cl)c1)C(=O)O; NMePhe(3-CF3) = CN[C@@H](Cc1cccc(C(F)(F)F)c1)C(=O)O; Pro(trans-4-Ph) = O=C(O)[C@@H]1C[C@@H](c2ccccc2)CN1; 3Oxa8azabicyclo(3.2.1)octane = C1CC2COCC1N2*; NMePhe(3-Cl) = CN[C@@H](Cc1cccc(Cl)c1)C(=O)O; NMePhe(4-Me) = CN[C@@H](Cc1ccc(C)cc1)C(=O)O; NMedβ3hAla = C[C@H](CC(=O)[*:2])N(C)[*:1]; NMeGly(cPent) = CN[C@H](C(=O)O)C1CCCC1; NMeAla(cPr) = CN[C@@H](CC1CC1)C(=O)O; NMe3Pal = CN[C@@H](Cc1cccnc1)C(=O)O; NMeY = CN[C@@H](Cc1ccc(O)cc1)C(=O)O; NMeCha = CN[C@@H](CC1CCCCC1)C(=O)O; NMeCba = CN[C@@H](CC1CCC1)C(=O)O; NMeChg = CN[C@H](C(=O)O)C1CCCCC1; NMeD = CN[C@@H](CC(=O)O)C(=O)O; NMeL = CN[C@@H](CC(C)C)C(=O)O; NMePra = C#CC[C@H](NC)C(=O)O; NMeNva = CCC[C@H](NC)C(=O)O; NMeV = CN[C@H](C(=O)O)C(C)C; d(β3hA) = C[C@@H](N)CC(=O)O; NMeAbu = CC[C@H](NC)C(=O)O; NMeS = CN[C@@H](CO)C(=O)O; Ac6c = NC1(C(=O)O)CCCCC1; Morpholide = C1CN(*)CCO1; NMeA = CN[C@@H](C)C(=O)O; Piperidide = C1CCN(*)CC1; Pyrrolidide = C1CCN(*)C1; Ac5c = NC1(C(=O)O)CCCC1; Aze = O=C(O)[C@@H]1CCN1; CF3 = FC(F)(F)*; Sar = CNCC(=O)O

Assays:
[1] = target: T1, Kras and SOS1 (biotin-tagged human Kras loaded with GDP, His-tagged human SOS1) (Homo sapiens, UniProt P01116, G12D); assay: Protein-protein interaction inhibition between Kras and SOS1 (KrasGl2D-SOS PPI) using AlphaScreen; assay type: binding; conditions: AlphaScreen; biotin-tagged human Kras loaded with GDP, His-tagged human SOS1; read-out: KRAS G12D-SOS PPI IC50
T1 construct: made in house; host or cells: E. coli (stated for Kras only)
How it was run: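 Kras was produced in E. coli, purified, then loaded with GDP. It was paired via streptavidin acceptor beads with His-SOS1 held on nickel donor beads, and proximity signal at 520-620 nm was read after 680 nm illumination.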

[2] = test system: Human pancreatic cancer cell line AsPC-1; assay: Measurement of AsPC-1 cell growth inhibition (AsPC-1 CGI); assay type: cell-based; conditions: 96 h
How it was run: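 AsPC-1 cells in 15% FBS RPMI-1640 were exposed to test compound for 96 hours at 37° C, with CellTiter-Glo as endpoint.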

T1 sequence (P01116 1-188 isoform P01116-2 G12D): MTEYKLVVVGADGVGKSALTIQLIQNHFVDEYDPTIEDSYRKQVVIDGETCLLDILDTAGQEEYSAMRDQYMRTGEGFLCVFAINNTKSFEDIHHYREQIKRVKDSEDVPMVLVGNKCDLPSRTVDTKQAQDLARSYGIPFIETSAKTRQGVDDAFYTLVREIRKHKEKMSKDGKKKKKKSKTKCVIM

SMILES	IC50 [1]	IC50 [2]
CC[C@H](C)[C@@H]1NC(=O)[C@H](CC(C)C)N(C)C(=O)C[C@@H](C(=O)N2CCCCC2)N(C)C(=O)[C@H](C(C)C)N(C)C(=O)C2(CCCC2)NC(=O)[C@@H]2CCCN2C(=O)[C@H](CCc2ccc(C(F)(F)F)c(Cl)c2)NC(=O)CN(C)C(=O)[C@H](Cc2cccc(Cl)c2)N(C)C(=O)CN(C)C(=O)CN(C)C1=O [Compound 1611] ([NMeL]I[Sar][Sar][NMePhe(3-Cl)][Sar][hPhe(3-Cl-4-CF3)]P[Ac5c][NMeV][NMeD]-Piperidide; lactam N-11)	3.2 nM	100 to 500 nM
C#CC[C@H]1C(=O)N[C@@H]([C@@H](C)CC)C(=O)N(C)CC(=O)N(C)CC(=O)N(C)[C@@H](CC2CCCCC2)C(=O)N(C)CC(=O)N[C@@H](CCc2ccc(C(F)(F)F)c(Cl)c2)C(=O)N2CCC[C@H]2C(=O)NC2(CCCC2)C(=O)N(C)[C@@H](C2CCCCC2)C(=O)N(C)[C@H](C(=O)N2CCCCC2)CC(=O)N1C [Compound 551] ([NMePra]I[Sar][Sar][NMeCha][Sar][hPhe(3-Cl-4-CF3)]P[Ac5c][NMeChg][NMeD]-Piperidide; lactam N-11)	0.52 nM	50 to 100 nM
CC[C@H](C)[C@@H]1NC(=O)[C@H](CC(C)C)N(C)C(=O)C[C@@H](C(=O)N2C3CCC2COC3)N(C)C(=O)[C@H](C(C)C)N(C)C(=O)C2(CCCC2)NC(=O)[C@@H]2CCCN2C(=O)[C@H](CCc2ccc(C(F)(F)F)c(Cl)c2)NC(=O)CN(C)C(=O)[C@H](CC2CCCCC2)N(C)C(=O)[C@@H]2CCN2C(=O)[C@H](C)N(C)C1=O [Compound 1235] ([NMeL]I[NMeA][Aze][NMeCha][Sar][hPhe(3-Cl-4-CF3)]P[Ac5c][NMeV][NMeD]-{3Oxa8azabicyclo(3.2.1)octane}; lactam N-11)	5.5 nM	100 to 500 nM
CC[C@H](C)[C@@H]1NC(=O)[C@H](CO)N(C)C(=O)C[C@@H](C(=O)N2CCCCC2)N(C)C(=O)[C@H](C2CCCCC2)N(C)C(=O)C2(CCCC2)NC(=O)[C@@H]2CCCN2C(=O)[C@H](CCc2ccc(C(F)(F)F)c(Cl)c2)NC(=O)CN(C)C(=O)[C@H](CC2CCCCC2)N(C)C(=O)CN(C)C(=O)CN(C)C1=O [Compound 1713] ([NMeS]I[Sar][Sar][NMeCha][Sar][hPhe(3-Cl-4-CF3)]P[Ac5c][NMeChg][NMeD]-Piperidide; lactam N-11)	0.49 nM	100 to 500 nM
CC[C@H](C)[C@@H]1NC(=O)[C@H](CC(C)C)N(C)C(=O)C[C@@H](C)N(C)C(=O)[C@H](C(C)C)N(C)C(=O)C2(CCCC2)NC(=O)[C@@H]2CCCN2C(=O)[C@H](CCc2ccc(C(F)(F)F)c(Cl)c2)NC(=O)CN(C)C(=O)[C@H](Cc2ccc(OC(F)(F)F)cc2)N(C)C(=O)CN(C)C(=O)CN(C)C1=O [Compound 1563] (cyclo([Ac5c][NMeV][NMedβ3hAla][NMeL]I[Sar][Sar][NMeY](CF3)[Sar][hPhe(3-Cl-4-CF3)]P))	6.2 nM	50 to 100 nM
CC[C@H](C)[C@@H]1NC(=O)[C@H](CC(C)C)N(C)C(=O)C[C@@H](C(=O)N2CCCCC2)N(C)C(=O)[C@H](C2CCCCC2)N(C)C(=O)C2(CCCC2)NC(=O)[C@@H]2C[C@@H](c3ccccc3)CN2C(=O)[C@H](CCc2ccc(C(F)(F)F)c(Cl)c2)NC(=O)CN(C)C(=O)[C@H](CC2CCCCC2)N(C)C(=O)[C@@H]2CCN2C(=O)CN(C)C1=O [Compound 147] ([NMeL]I[Sar][Aze][NMeCha][Sar][hPhe(3-Cl-4-CF3)][Pro(trans-4-Ph)][Ac5c][NMeChg][NMeD]-Piperidide; lactam N-11)	6.7 nM	100 to 500 nM
CC[C@H](C)[C@@H]1NC(=O)[C@H](CC2CC2)N(C)C(=O)C[C@@H](C(=O)N2CCCCC2)N(C)C(=O)[C@H](C(C)C)N(C)C(=O)C2(CCCC2)NC(=O)[C@@H]2CCCN2C(=O)[C@H](CCc2ccc(C(F)(F)F)c(Cl)c2)NC(=O)CN(C)C(=O)[C@H](CC2CCCCC2)N(C)C(=O)CN(C)C(=O)CN(C)C1=O [Compound 561] ([NMeAla(cPr)]I[Sar][Sar][NMeCha][Sar][hPhe(3-Cl-4-CF3)]P[Ac5c][NMeV][NMeD]-Piperidide; lactam N-11)	3.4 nM	100 to 500 nM
CC[C@H](C)[C@@H]1NC(=O)[C@H](CC(C)C)N(C)C(=O)C[C@@H](C)N(C)C(=O)[C@H](C(C)C)N(C)C(=O)C2(CCCCC2)NC(=O)[C@@H]2CCCN2C(=O)[C@H](CCc2ccc(C(F)(F)F)c(Cl)c2)NC(=O)CN(C)C(=O)[C@H](CC2CCCCC2)N(C)C(=O)CN(C)C(=O)CN(C)C1=O [Compound 81] (cyclo([Ac6c][NMeV][NMedβ3hAla][NMeL]I[Sar][Sar][NMeCha][Sar][hPhe(3-Cl-4-CF3)]P))	14 nM	100 to 500 nM
CC[C@H](C)[C@@H]1NC(=O)[C@H](CC(C)C)N(C)C(=O)C[C@@H](C)NC(=O)[C@H](C(C)C)N(C)C(=O)C2(CCCCC2)NC(=O)[C@@H]2CCCN2C(=O)[C@H](CCc2ccc(C(F)(F)F)c(Cl)c2)NC(=O)CN(C)C(=O)[C@H](CC2CCCCC2)N(C)C(=O)CN(C)C(=O)CN(C)C1=O [Compound 439] (cyclo([Ac6c][NMeV][d(β3hA)][NMeL]I[Sar][Sar][NMeCha][Sar][hPhe(3-Cl-4-CF3)]P))	52 nM	100 to 500 nM
CC[C@H](C)[C@@H]1NC(=O)[C@H](CC(C)C)N(C)C(=O)C[C@@H](C(=O)N2CCOCC2)N(C)C(=O)[C@H](C2CCCCC2)N(C)C(=O)C2(CCCC2)NC(=O)[C@@H]2CCCN2C(=O)[C@H](CCc2ccc(C(F)(F)F)c(Cl)c2)NC(=O)CN(C)C(=O)[C@H](Cc2ccc(C)cc2)N(C)C(=O)CN(C)C(=O)CN(C)C1=O [Compound 1872] ([NMeL]I[Sar][Sar][NMePhe(4-Me)][Sar][hPhe(3-Cl-4-CF3)]P[Ac5c][NMeChg][NMeD]-Morpholide; lactam N-11)	0.65 nM	20 to 50 nM
CC[C@H](C)[C@@H]1NC(=O)[C@H](CC(C)C)N(C)C(=O)C[C@@H](C)N(C)C(=O)[C@H](C2CCCCC2)N(C)C(=O)C2(CCCC2)NC(=O)[C@@H]2CCCN2C(=O)[C@H](CCc2ccc(C(F)(F)F)c(Cl)c2)NC(=O)CN(C)C(=O)[C@H](CC2CCCCC2)N(C)C(=O)CN(C)C(=O)CN(C)C1=O [Compound 629] (cyclo([Ac5c][NMeChg][NMedβ3hAla][NMeL]I[Sar][Sar][NMeCha][Sar][hPhe(3-Cl-4-CF3)]P))	10 nM	100 to 500 nM
CC[C@H](C)[C@@H]1NC(=O)[C@H](CC(C)C)N(C)C(=O)C[C@@H](C(=O)N(C)C)N(C)C(=O)[C@H](C2CCCC2)N(C)C(=O)C2(CCCC2)NC(=O)[C@H](Cc2cccnc2)N(C)C(=O)[C@H](CCc2ccc(C(F)(F)F)c(Cl)c2)NC(=O)CN(C)C(=O)[C@H](CC2CCCCC2)N(C)C(=O)[C@@H]2CCN2C(=O)[C@H](C)N(C)C1=O [Compound 1071] ([NMeL]I[NMeA][Aze][NMeCha][Sar][hPhe(3-Cl-4-CF3)][NMe3Pal][Ac5c][NMeGly(cPent)][NMeD]-NMe2; lactam N-11)	1.3 nM	100 to 500 nM
CC[C@H](C)[C@@H]1NC(=O)[C@H](CC(C)C)N(C)C(=O)C[C@@H](C(=O)N2CCCCC2)N(C)C(=O)[C@H](CC2CCC2)N(C)C(=O)C2(CCCC2)NC(=O)[C@@H]2CCCN2C(=O)[C@H](CCc2ccc(C(F)(F)F)c(Cl)c2)NC(=O)CN(C)C(=O)[C@H](CC2CCCCC2)N(C)C(=O)CN(C)C(=O)CN(C)C1=O [Compound 968] ([NMeL]I[Sar][Sar][NMeCha][Sar][hPhe(3-Cl-4-CF3)]P[Ac5c][NMeCba][NMeD]-Piperidide; lactam N-11)	3.1 nM	100 to 500 nM
CCC[C@H]1C(=O)N[C@@H]([C@@H](C)CC)C(=O)N(C)CC(=O)N(C)CC(=O)N(C)[C@@H](CC2CCCCC2)C(=O)N(C)CC(=O)N[C@@H](CCc2ccc(C(F)(F)F)c(Cl)c2)C(=O)N2CCC[C@H]2C(=O)NC2(CCCC2)C(=O)N(C)[C@@H](C2CCCCC2)C(=O)N(C)[C@H](C(=O)N2CCCCC2)CC(=O)N1C [Compound 778] ([NMeNva]I[Sar][Sar][NMeCha][Sar][hPhe(3-Cl-4-CF3)]P[Ac5c][NMeChg][NMeD]-Piperidide; lactam N-11)	0.7 nM	20 to 50 nM
CC[C@H](C)[C@@H]1NC(=O)[C@H](CC)N(C)C(=O)C[C@@H](C(=O)N2CCCC2)N(C)C(=O)[C@H](C2CCCCC2)N(C)C(=O)C2(CCCC2)NC(=O)[C@@H]2CCCN2C(=O)[C@H](CCc2ccc(C(F)(F)F)c(Cl)c2)NC(=O)CN(C)C(=O)[C@H](CC2CCCCC2)N(C)C(=O)CN(C)C(=O)CN(C)C1=O [Compound 1958] ([NMeAbu]I[Sar][Sar][NMeCha][Sar][hPhe(3-Cl-4-CF3)]P[Ac5c][NMeChg][NMeD]-Pyrrolidide; lactam N-11)	0.45 nM	20 to 50 nM
CCC[C@H]1C(=O)N[C@@H]([C@@H](C)CC)C(=O)N(C)CC(=O)N(C)CC(=O)N(C)[C@@H](CC2CCCCC2)C(=O)N(C)CC(=O)N[C@@H](CCc2ccc(C(F)(F)F)c(Cl)c2)C(=O)N2CCC[C@H]2C(=O)NC2(CCCC2)C(=O)N(C)[C@@H](C2CCCCC2)C(=O)N(C)[C@H](C(=O)N2C3CCC2COC3)CC(=O)N1C [Compound 1933] ([NMeNva]I[Sar][Sar][NMeCha][Sar][hPhe(3-Cl-4-CF3)]P[Ac5c][NMeChg][NMeD]-{3Oxa8azabicyclo(3.2.1)octane}; lactam N-11)	0.59 nM	50 to 100 nM
CC[C@H](C)[C@@H]1NC(=O)[C@H](CC(C)C)N(C)C(=O)C[C@@H](C(=O)N2CCCCC2)N(C)C(=O)[C@H](C(C)C)N(C)C(=O)C2(CCCC2)NC(=O)[C@@H]2CCCN2C(=O)[C@H](CCc2ccc(C(F)(F)F)c(Cl)c2)NC(=O)CN(C)C(=O)[C@H](Cc2cccc(C(F)(F)F)c2)N(C)C(=O)CN(C)C(=O)CN(C)C1=O [Compound 1555] ([NMeL]I[Sar][Sar][NMePhe(3-CF3)][Sar][hPhe(3-Cl-4-CF3)]P[Ac5c][NMeV][NMeD]-Piperidide; lactam N-11)	6.1 nM	100 to 500 nM
